The values that follow come from paper PMC10598831 (JACS Au, 2023).

Data set [1] addresses T1, GDI2 (Homo sapiens, UniProt P50395).
T1 sequence (P50395 1-445): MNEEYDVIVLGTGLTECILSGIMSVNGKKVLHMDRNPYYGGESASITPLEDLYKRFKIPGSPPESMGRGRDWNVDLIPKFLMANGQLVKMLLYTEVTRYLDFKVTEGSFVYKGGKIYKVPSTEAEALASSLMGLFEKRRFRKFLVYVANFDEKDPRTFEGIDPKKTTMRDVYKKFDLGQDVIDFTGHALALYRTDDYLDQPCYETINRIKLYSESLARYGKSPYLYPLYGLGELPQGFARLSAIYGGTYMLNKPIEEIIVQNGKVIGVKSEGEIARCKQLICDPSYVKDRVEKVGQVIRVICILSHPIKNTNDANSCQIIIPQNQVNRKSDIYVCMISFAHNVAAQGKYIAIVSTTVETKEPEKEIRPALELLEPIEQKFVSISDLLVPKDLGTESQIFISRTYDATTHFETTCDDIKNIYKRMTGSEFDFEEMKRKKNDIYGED
As to the kind of experiment: Biolayer interferometry. In kind it is binding.

In another data set the target is T2, GDI1 (Homo sapiens, UniProt P31150).
T2 sequence (P31150 1-447): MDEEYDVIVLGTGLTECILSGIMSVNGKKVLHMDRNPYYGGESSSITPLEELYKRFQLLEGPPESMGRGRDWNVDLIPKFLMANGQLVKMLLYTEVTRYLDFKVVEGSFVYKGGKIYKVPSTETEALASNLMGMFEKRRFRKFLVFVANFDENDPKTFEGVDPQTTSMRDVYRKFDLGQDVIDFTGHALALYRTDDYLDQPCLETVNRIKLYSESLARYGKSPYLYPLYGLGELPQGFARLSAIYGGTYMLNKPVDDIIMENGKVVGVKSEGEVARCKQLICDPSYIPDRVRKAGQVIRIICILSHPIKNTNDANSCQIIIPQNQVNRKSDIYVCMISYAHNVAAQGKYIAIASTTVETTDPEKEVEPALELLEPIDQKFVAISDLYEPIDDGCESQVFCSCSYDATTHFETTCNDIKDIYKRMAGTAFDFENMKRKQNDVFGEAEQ
Put plainly: GDI1 level by Western blot, AsPC-1 cells. The following applies: up to 10 μM. In kind it is cell-based.

The next data set concerns AsPC-1 xenograft. Put plainly: AsPC-1 pancreatic carcinoma xenograft model. In kind it is in vivo, mouse.
In data set [2] the target is T1, GDI2. As to the kind of experiment: GDI2 degradation by Western blot, AsPC-1 cells. In kind it is cell-based.
The test system of another data set is PDAC PDX tumors. Put plainly: Pancreatic adenocarcinoma PDX model. In kind it is in vivo, mouse.

`Cc1cc(C)cc(COc2cc3c(cc2OCc2cc(C)cc(C)c2)[C@H]2C[C@](O)(Cc4cn(CCOCCOCCOCCNC(=O)[C@@H](CC(C)C)NC(=O)[C@@H](O)[C@H](N)Cc5ccccc5)nn4)C[C@H](C)N2CC3)c1` [Compound 21]: at GDI2 [1], the Kd stood at 23.9 µM. For the same compound, the “Effect on GDI1 protein level” value at GDI1 is “without affecting the GDI1 protein level”. Moreover, the “GDI2 not restored in tumor tissue” value with AsPC-1 xenograft (15 mg/kg ip., 72 h post final injection, Western blot) is given as “more than 90%”. The “Toxicity (body weight, histopathology of major organs)” value in the data set on AsPC-1 xenograft (18 days of treatment) is “No significant signs of toxicity”. Also, in the data set with AsPC-1 xenograft ((+)-37 25 or 40 mg/kg ip., 21 15 mg/kg ip., every 3 days, 18 days), the “Tumor growth vs vehicle” value is on record as “significantly attenuated tumor growth”. Also, the maximal degradation (Dmax) at GDI2 [2] (ASPC1, read-out: GDI2 Dmax) was 84.2%. For the same compound, the GDI2 depleted at GDI2 [2] (AsPC-1 cells, after 9 h of treatment) is listed as more than 70%. Besides, the 50% degradation concentration (DC50) at GDI2 [2] (read-out: GDI2 DC50, AsPC-1 cells, 0.63–10 μM, 24 h, n = 3) stood at 1.48 µM. In addition, the Toxicity entry in the data set on PDAC PDX tumors (18 days of treatment) is listed as “without significant toxicity”. Moreover, the PDAC tumor growth entry with PDAC PDX tumors ((+)-37 40 mg/kg ip., 21 15 mg/kg ip., every 3 days, 18 days) is “successfully suppressed PDAC tumor growth”.
